Reference: patent US5861395A, “Compounds useful for inhibition of farnesyl proteins transferase” (Schering Corporation, priority 1997, dated 1999)

Assays:
[1] = molecular target: farnesyl protein transferase; assay: FPT IC50 (inhibition of farnesyl protein transferase, in vitro enzyme assay); type: biochemical
From the text: In Table 2 "Ex. No." stands for "Example Number". In Table 2, FPT IC50 results are less indicated otherwise.

COS Cell = COS Cell IC50 (Cell-Based Assay)
Experimental: FPT IC50 (inhibition of farnesyl protein transferase, in vitro enzyme assay), GGPT IC50 (inhibition of geranylgeranyl protein transferase, in vitro enzyme assay) and COS Cell IC50 (Cell-Based Assay) were determined following the assay procedures described in WO 95/10516, published Apr. 20, 1995. Cell Mat Assay, and anti-tumor activity (in vivo anti-tumor studies) could be determined by the assay procedures described in WO 95/10516. The disclosure of WO 95/10516 is incorporated herein by reference thereto.

Human tumor cells = assay: Soft Agar Assay (anchorage-independent growth); type: cell-based; conditions: Table 4, colonies after 10-16 days at 37° C.
Experimental: Soft Agar Assay: Anchorage-independent growth is a characteristic of tumorigenic cell lines. Human tumor cells are suspended in growth medium containing 0.3% agarose and an indicated concentration of a farnesyl transferase inhibitor. The solution is overlayed onto growth medium solidified with 0.6% agarose containing the same concentration of farnesyl transferase inhibitor as the top layer. After the top layer is solidified, plates are incubated for 10-16 days at 37° C. under 5% CO2 to allow colony outgrowth. […] Colonies can be counted and the IC50 's can be determined.

IC50 ([1]; Table 3)	IC50 (Human tumor cells; Homo sapiens)	IC50 ([1]; Table 2)	SMILES	IC50 (COS Cell; Table 4)	also measured
2 nM	280 nM	–	O=C1NC[C@@H](C(=O)N2CCC(CC(=O)N3CCC([C@H]4c5ncc(Br)cc5CCc5cc(Cl)cc(Br)c54)CC3)CC2)N1 [Compound 15.0-B]	33 nM	IC50 (Human tumor cells): 370 nM
2.3 nM	120 nM	–	O=C1N[C@H](C(=O)N2CCC(CC(=O)N3CCC([C@H]4c5ncc(Br)cc5CCc5cc(Cl)cc(Br)c54)CC3)CC2)CO1 [Compound 28.0-B]	7 nM	–
3 nM	150 nM	–	O=C(CC1CCN(C(=O)c2cn[nH]c2)CC1)N1CCC([C@H]2c3ncc(Br)cc3CCc3cc(Cl)cc(Br)c32)CC1 [Compound 31.0-B]	7 nM	–
2.6 nM	180 nM	–	CC(=O)N1CCC(CC(=O)N2CCC([C@H]3c4ncc(Br)cc4CCc4cc(Cl)cc(Br)c43)CC2)CC1 [Compound 36.0-B]	50 nM	IC50 (Human tumor cells): 170 nM
2.9 nM	450 nM	–	O=C(CC1CCN(C(=O)c2ccc(O)nc2)CC1)N1CCC([C@H]2c3ncc(Br)cc3CCc3cc(Cl)cc(Br)c32)CC1 [Compound 47.0-B]	35 nM	–
7.3 nM	440 nM	–	CC(=O)O[C@H]1CC[C@@H](C(=O)N2CCC(CC(=O)N3CCC([C@H]4c5ncc(Br)cc5CCc5cc(Cl)cc(Br)c54)CC3)CC2)CC1 [Compound 66.0-B]	10 nM	–
4.5 nM	360 nM	–	O=C(CC1CCN(C(=O)[C@H]2CC[C@@H](O)CC2)CC1)N1CCC([C@H]2c3ncc(Br)cc3CCc3cc(Cl)cc(Br)c32)CC1 [Compound 73.0-B]	24 nM	–
2.6 nM	170 nM	–	O=C1C[C@@H](C(=O)N2CCC(CC(=O)N3CCC([C@H]4c5ncc(Br)cc5CCc5cc(Cl)cc(Br)c54)CC3)CC2)NC(=O)N1 [Compound 78.0-B]	30 nM	–
2.6 nM	> 500 nM	–	O=C(CC1CCN(C(=O)[C@@H]2CSCN2)CC1)N1CCC([C@H]2c3ncc(Br)cc3CCc3cc(Cl)cc(Br)c32)CC1 [Compound 80.0-B]	–	–
–	–	2.3 nM	N#CN1CCC(CC(=O)N2CCC([C@H]3c4ncc(Br)cc4CCc4cc(Cl)cc(Br)c43)CC2)CC1 [Example 26]	–	IC50 (COS Cell; Table 2): 12 nM

More lines, now with the values behind:

SMILES	IC50 ([1]; Table 3)	IC50 (Human tumor cells; Homo sapiens)	IC50 ([1]; Table 2)	IC50 (COS Cell; Table 4)	also measured
O=C(O)c1cncc(C(=O)N2CCC(CC(=O)N3CCC([C@H]4c5ncc(Br)cc5CCc5cc(Cl)cc(Br)c54)CC3)CC2)c1 [Compound 25.0-B]	0.8 nM	> 500 nM	–	> 1000 nM	–
Cc1noc(C)c1C(=O)N1CCC(CC(=O)N2CCC([C@H]3c4ncc(Br)cc4CCc4cc(Cl)cc(Br)c43)CC2)CC1 [Compound 27.0-B]	4 nM	370 nM	–	10 nM	–
NC(=O)c1cncc(C(=O)N2CCC(CC(=O)N3CCC([C@H]4c5ncc(Br)cc5CCc5cc(Cl)cc(Br)c54)CC3)CC2)c1 [Compound 29.0-B]	2.2 nM	500 nM	–	21 nM	–
O=C(CC1CCN(C(=O)c2cccn2Cc2ccccc2)CC1)N1CCC([C@H]2c3ncc(Br)cc3CCc3cc(Cl)cc(Br)c32)CC1 [Compound 41.0-B]	1.7 nM	> 500 nM	–	30 nM	–
NC(=O)Cn1cccc1C(=O)N1CCC(CC(=O)N2CCC([C@H]3c4ncc(Br)cc4CCc4cc(Cl)cc(Br)c43)CC2)CC1 [Compound 42.0-B]	3.2 nM	310 nM	–	27 nM	–
CS(=O)(=O)n1cccc1C(=O)N1CCC(CC(=O)N2CCC([C@H]3c4ncc(Br)cc4CCc4cc(Cl)cc(Br)c43)CC2)CC1 [Compound 43.0-B]	3.8 nM	200 nM	–	< 10 nM	–
O=C(CC1CCN(C(=O)c2ccc[n+]([O-])c2)CC1)N1CCC([C@H]2c3ncc(Br)cc3CCc3cc(Cl)cc(Br)c32)CC1 [Compound 46.0-B]	1.9 nM	165 nM	–	7 nM	–
O=C(CC1CCN(C(=O)c2cccnc2O)CC1)N1CCC([C@H]2c3ncc(Br)cc3CCc3cc(Cl)cc(Br)c32)CC1 [Compound 48.0-B]	2.1 nM	> 500 nM	–	47 nM	–
CC(C)(C)OC(=O)Cn1cccc1C(=O)N1CCC(CC(=O)N2CCC([C@H]3c4ncc(Br)cc4CCc4cc(Cl)cc(Br)c43)CC2)CC1 [Compound 61.0-B]	11 nM	–	–	–	–
O=C(O)Cn1cccc1C(=O)N1CCC(CC(=O)N2CCC([C@H]3c4ncc(Br)cc4CCc4cc(Cl)cc(Br)c43)CC2)CC1 [Compound 62.0-B]	2.8 nM	> 500 nM	–	700 nM	–
N#CN=C(Oc1ccccc1)N1CCC(CC(=O)N2CCN(C3c4ccc(Cl)cc4CCc4cc(Br)cnc43)CC2)CC1 (centres unmarked) [Example 1, PHENYL 4-[2-[4-(3-BROMO-8-CHLORO-6,11-DIHYDRO-5H-BENZO[5,6]CYCLOHEPTA[1,2-b]PYRIDIN-11-YL]-1-PIPERAZINYL]-2-OXOETHYL]-N-CYANO-1-PIPERIDINE-CARBOXIMIDATE]	–	–	–	–	FPT inhibition (column FPT IC50) ([1]; @ 0.3 μM, Table 2): 44%
N#CNC(=N)N1CCC(CC(=O)N2CCN(C3c4ccc(Cl)cc4CCc4cc(Br)cnc43)CC2)CC1 (centres unmarked) [Example 2, 4-[2-[4-(3-BROMO-8-CHLORO-6,11-DIHYDRO-5 H-BENZO[5,6]CYCLOHEPTA[1,2-b]PYRIDIN-11-YL)-1-PIPERAZINYL]-2-OXOETHYL]-N-CYANO-1-PIPERIDINE-CARBOXIMIDAMIDE]	–	–	100 nM	–	–
N#CN1CCC(CC(=O)N2CCN(C3c4ccc(Cl)cc4CCc4cc(Br)cnc43)CC2)CC1 (centres unmarked) [Example 4]	–	–	54.3 nM	–	–
N=C(NS(N)(=O)=O)N1CCC(CC(=O)N2CCN(C3c4ccc(Cl)cc4CCc4cc(Br)cnc43)CC2)CC1 (centres unmarked) [Example 6, 4-[2-[4-(3-BROMO-8-CHLORO-6,11-DIHYDRO-5H-BENZO[5,6]CYCLOHEPTA[1,2-b]PYRIDIN-11-YL)-1-PIPERAZINYL]2-OXOETHYL]-N-SULFAMOYL-1-PIPERIDINE-CARBOXIMIDAMIDE]	–	–	120 nM	–	–
NC(=NO)N1CCC(CC(=O)N2CCN(C3c4ccc(Cl)cc4CCc4cc(Br)cnc43)CC2)CC1 (centres unmarked) [Example 11, 4-[2-[4-(3-BROMO-8-CHLORO-6,11-DIHYDRO-5 H-BENZO[5,6CYCLOHEPTA[1,2-b]PYRIDIN-11-YL-1-PIPERAZINYL]-2-OXOETHYL]-N-HYDROXY-1-PIPERIDINE-CARBOXIMIDATE]	–	–	58 nM	–	–
NC(=O)NC(=O)N=C(Oc1ccccc1)N1CCC(CC(=O)N2CCN(C3c4ccc(Cl)cc4CCc4cc(Br)cnc43)CC2)CC1 (centres unmarked) [Example 13, PHENYL N- [[(AMINOCARBONYL)AMINO]CARBONYL]4-[2-[4-(3-BROMO-8-CHLORO-6,11-DIHYDRO-5 H-BENZO[5,6CYCLOHEPTA-[1,2-b]PYRIDIN-11-YL)-1-PIPERAZINYL]-2-OXOETHYL]-1-PIPERIDINECARBOXIMIDATE]	–	–	140 nM	–	–
N=C(NC(=O)NC(N)=O)N1CCC(CC(=O)N2CCN(C3c4ccc(Cl)cc4CCc4cc(Br)cnc43)CC2)CC1 (centres unmarked) [Example 14, N-[[(AMINOCARBONYL)AMINO]CARBONYL]-4-[2-[4-(3-BROMO-8-CHLORO-6,11-DIHYDRO-5H-BENZO[5,6]CYCLOHEPTA[1,2-b]-PYRIDIN-11-YL)-1-PIPERAZINYL]2-OXOETHYL]-1-PIPERIDINECARBOXIMIDAMIDE]	–	–	78 nM	–	–
N=C(Oc1ccccc1)N1CCC(CC(=O)N2CCC(C3c4ccc(Cl)c(Br)c4CCc4cc(Br)cnc43)CC2)CC1 (centres unmarked) [Example 27]	–	–	39 nM	–	–
N=C(N)N1CCC(CC(=O)N2CCC(C3c4ccc(Cl)c(Br)c4CCc4cc(Br)cnc43)CC2)CC1 (centres unmarked) [Example 28]	–	–	23 nM	–	inhibition at 1 µM (COS Cell; @ 1 μM, Table 2): 0%
